# Test results published in US8940798B2, “Compounds useful for treating and/or preventing disease-associated bone loss” (Centre National de al Recherche Scientifique (CNRS), priority 2011, dated 2015).
# Key:
# Dock5-DHR2 = target: T1, Dock5-DHR2 (Mus musculus, UniProt B2RY04); assay: Yeast exchange assay screening for Dock5 inhibitors; assay type: cell-based; settings: screen of 2,640 compounds at 100 μM, 1% DMSO
# T1 construct: Dock5 DHR2 domain (aminoacids E1119 to L1667) was cloned into pEGFP (Clontech) or myc tagged in pRs426Met (21); expressed in transfected cells; host or cells: HEK-293T cells
# Description: FIGS. 5A-5H: Inhibition of bone resorption by an inhibitor of Rac1 activation by Dock5. (FIG. 5A) Principle of the yeast exchange assay used to identify inhibitors of Dock5 exchange activity. Wild type Rac1 is fused to LexA DNA binding domain (LexA) and its effector Kinectin (Kin) to GAL4 activation domain (GAD). Expression of Dock5-DHR2 activates Rac1, which binds to kinectin, leading to the expression of his3 and then yeast […] for histidine. Inhibitors of Dock5-DHR2 revert Rac1 activation. (FIG. 5B) Growth curves of yeasts expressing Rac1 and Kinectin with (open triangles) and without (dots) Dock5-DHR2, in medium complemented (plain lines) or not (dotted lines) with histidine. (FIG. 5C) Structure of N-(3,5-dichlorophenyl)benzensulfonamide (C21). (FIG. 5D) Western blots showing total and GTPbound Rac1 (upper panels) and GFP and GFP-fused Dock5-DHR2 in extracts of 293T cells treated for 1 hour with the indicated concentrations of C21 in the presence of 1% DMSO. (FIG. 5E) Western blots showing total and GTP-bound Rac1 (upper panels) and GFP and GFP-fused TrioN in extracts of 293T cells treated as in FIG. 5D. (FIG. 5F) Number of OCs (OC) after a 24-hour incubation with the indicated concentrations of C21, expressed as a % of DMSO control (0 μM C21). […] (FIG. 5G) CTx concentration in the medium of OCs on bone in the absence (O) or presence of 25 μM C21. […]
# DBA1 mice = assay: Arthritis model induced by injecting bovine collagen into DBA1 mice; assay type: in vivo, mouse
# Description: In inflammatory arthritis pathologies such as rheumatoid polyarthritis, the inflammatory reaction in the synovial tissue causes differentiation of osteoclasts that destroy the bone in the area of the joints (see FIG. 8). The arthritis model induced by injecting bovine collagen into DBA1 mice is classically used as a model for this pathology.
# Protocol experiment 1: 2 naive DBA1 mice, 6 control mice injected with PBS and 8 test mice receiving the compound C21, 5 mg/d/kg, 5 days per week, as a retro-orbital sinus injection. The mice are distributed in 2 cages, with 1 naive mouse, 3 control mice and 4 test mice per cage. The animals, with the exception of the naive mice, receive an injection of […] of bovine collagen at day 0 and at day 20.
# Protocol experiment 2: 4 naive DBA1 mice, 12 control mice injected with PBS and 12 test mice receiving the compound C21, 15 mg/d/kg, 5 days per week, as an intraperitoneal injection. The mice are distributed in 2 cages, with 2 naive mice, 6 control mice and 6 test mice per cage. The animals, with the exception of the naive mice, receive an injection of 100 μg of bovine collagen at day 0 and at day 20.
# The arthritic score of each mouse is established twice per week between days 20 and D52, in order to measure swelling and deformation of the joints of the four limbs, an indication of the inflammatory response. The mice are sacrificed at D53, the legs are dissected and the structure of the bone surface of the metatarsi is imaged by micro-tomography in order to show the bone degradation at the area of the joints. The bone volume with respect to the total volume of the joint (BV/TV) decreases with the formation of resorption cavities. The measurements were performed on the joint of the central finger of the right metatarsus in experiment 1 and from the left and the right metatarsus in experiment 2. Anti-collagen IgG levels were measured in the serum of the mice in experiment 2 at day 52.
# T1 sequence (B2RY04 1119-1667): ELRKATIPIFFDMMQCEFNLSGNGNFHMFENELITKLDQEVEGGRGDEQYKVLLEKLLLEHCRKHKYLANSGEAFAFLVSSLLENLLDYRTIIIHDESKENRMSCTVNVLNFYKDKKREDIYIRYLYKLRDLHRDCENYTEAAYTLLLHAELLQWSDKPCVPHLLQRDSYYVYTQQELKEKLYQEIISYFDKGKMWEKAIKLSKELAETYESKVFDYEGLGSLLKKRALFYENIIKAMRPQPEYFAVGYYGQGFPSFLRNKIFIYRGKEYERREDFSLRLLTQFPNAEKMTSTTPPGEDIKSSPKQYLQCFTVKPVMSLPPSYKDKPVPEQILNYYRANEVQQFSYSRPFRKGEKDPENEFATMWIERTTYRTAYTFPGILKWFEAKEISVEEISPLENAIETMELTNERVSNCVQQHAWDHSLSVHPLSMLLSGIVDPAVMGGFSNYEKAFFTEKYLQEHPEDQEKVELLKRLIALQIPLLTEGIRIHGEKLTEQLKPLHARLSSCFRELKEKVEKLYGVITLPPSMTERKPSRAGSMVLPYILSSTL
compound,measurement,setting,value
"O=S(=O)(Nc1cc(Cl)cc(Cl)c1)c1ccccc1 [C21, N-(3,5-dichlorophenyl)benzenesulfonamide]",Inhibition of growth of Dock5 DHR2-expressing yeasts in Histidine deprived medium without affecting growth in Histidine complemented medium,Dock5-DHR2,identified
same,Correlation between the arthritic score and BV/TV,"DBA1 mice; experiment 1, 5 mg/d/kg",no correlation
same,Mean arthritic score on D52,"DBA1 mice; experiment 1, 5 mg/d/kg, 5 days per week, retro-orbital sinus injection",3.78±1.23
same,Bone mass regardless of arthritic score,"DBA1 mice; experiment 1, 5 mg/d/kg, BV/TV relative to arthritic score",maintenance of their bone mass
same,Bone mass (BV/TV) by micro-tomography by comparison with the naive mice,"DBA1 mice; experiment 1, 5 mg/d/kg, metatarsus joint, D53",did not have any BV/TV modification
same,Number of mice of the 8 showing moderate bone degradation,"DBA1 mice; experiment 1, 5 mg/d/kg, three-dimensional reconstruction of first joint of metatarsus",1
same,Correlation between the BV/TV and the arthritic score,"DBA1 mice; experiment 2, 15 mg/d/kg intraperitoneal",no correlation
same,Levels of anti-collagen IgGs compared with PBS mice,"DBA1 mice; experiment 2, 15 mg/d/kg intraperitoneal, serum at day 52",non-significantly different
